Laboratory results published in patent publication US20090012056A1, “Quinoline Compounds Capable of Binding the Cb2 and/or the 5-Ht6 Receptor” (GLAXO GROUP LIMITED, priority 2005, published 2009).
Where a name gives a salt, the structure may show the parent alone.

Each compound was assayed against T1, human cannabinoid CB2 receptor (Homo sapiens, UniProt P34972) (assay: Cannabinoid CB2 receptor agonist activity in yeast cells expressing the human CB2 receptor (FDGlu fluorescence)). Settings: 24 hours at 30° C., read-out: pEC50 at the CB2 receptor (agonist activity) (converted).
T1 construct: expressed in transfected cells; host or cells: Saccharomyces cerevisiae strain MMY23
Assay type: cell-based
From the text: Yeast (Saccharomyces cerevisiae) cells expressing the human cannabinoid CB2 receptor were generated by integration of an expression cassette into the ura3 chromosomal locus of yeast strain MMY23. This cassette consisted of DNA sequence encoding the human CB2 receptor flanked by the yeast GPD promoter to the 5′ end of CB2 and a yeast transcriptional terminator sequence to the 3′ end of CB2. MMY23 expresses a yeast/mammalian chimeric G-protein alpha subunit in which the C-terminal 5 amino acids of Gpa1 are replaced with the C-terminal 5 amino acids of human Gαi1/23 (as described in Brown et al. (2000), Yeast 16:11-22). Cells were grown at 30° C. in liquid Synthetic Complete (SC) yeast media (Guthrie and Fink (1991), Methods in Enzymology, Vol. 194) lacking uracil, tryptophan, adenine and leucine to late logarithmic phase (approximately 6 OD600/ml).
Agonists were prepared as 10 mM solutions in DMSO. EC50 values (the concentration required to produce 50% maximal response) were estimated using 4 fold dilutions of between 3- and 5-fold (BiomekFX, Beckman) into DMSO. Agonist solutions in DMSO (1% final assay volume) were transferred into black microtitre plates from NUNC Greiner (384-well). Cells were suspended at a density of 0.2 OD600/ml in SC media lacking histidine, uracil, tryptophan, adenine and leucine and supplemented with 10 mM 3-aminotriazole, 0.1M sodium phosphate pH 7.0, and 120 μM fluorescein di-β-D-glucopyranoside (FDGlu). This mixture (50 ul per well) was added to agonist in the assay plates (Multidrop 384, Labsystems). After incubation at 30° C. for 24 hours, fluorescence resulting from degradation of FDGlu to fluorescein due to exoglucanase, an endogenous yeast enzyme produced during agonist-stimulated cell growth, was determined using a fluorescence microtitre plate reader (Tecan Spectrofluor or LJL Analyst excitation wavelength: 485 nm; emission wavelength: 535 nm). Fluorescence was plotted against compound concentration and iteratively curve fitted using a four parameter fit to generate a concentration effect value.
Efficacy (Emax) was calculated from the equation
Emax=Max[compound X]−Min[compound X]/Max[HU210]−Min[HU210]×100% • where Max[compound X] and Min[compound X] are the fitted maximum and minimum respectively from the concentration effect curve for compound X, and Max[HU210] and Min[HU210] are the fitted maximum and minimum respectively from the concentration effect curve for (6aR,10aR)-3-(1,1′-Dimethylheptyl)-6a,7,10,10a-tetrahydro-1-hydroxy-6,6-dimethyl-6H-dibenzo[b,d]pyran-9-methanol (HU210; available from Tocris). Equieffective molar ratio (EMR) values were calculated from the equation
EMR=EC50[compound X]/EC50[HU210] • Where EC50 [compound X] is the EC50 of compound X and EC50 [HU210] is the EC50 of HU210. • pEC50 is the negative log of the EC50.

T1 sequence (P34972 whole entry): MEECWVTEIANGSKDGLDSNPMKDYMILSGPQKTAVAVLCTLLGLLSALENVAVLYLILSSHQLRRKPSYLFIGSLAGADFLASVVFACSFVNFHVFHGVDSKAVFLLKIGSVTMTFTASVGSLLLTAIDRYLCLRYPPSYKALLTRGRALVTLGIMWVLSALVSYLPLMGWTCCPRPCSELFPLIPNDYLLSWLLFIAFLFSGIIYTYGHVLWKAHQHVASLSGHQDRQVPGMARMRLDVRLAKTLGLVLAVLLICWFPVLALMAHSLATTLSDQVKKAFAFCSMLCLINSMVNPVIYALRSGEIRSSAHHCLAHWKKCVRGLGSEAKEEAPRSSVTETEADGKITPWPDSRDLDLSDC

| SMILES | EC50 [µM] |
| --- | --- |
| O=S(=O)(c1ccccc1)c1cnc2c(CN3CCC(F)(F)CC3)cccc2c1 [Example 5, 8-[(4,4-Difluoro-1-piperidinyl)methyl]-3-(phenylsulfonyl)quinoline] | < 1 |
| CC1CCC(C)N1Cc1cccc2cc(S(=O)(=O)c3ccccc3)cnc12 (stereo not shown) [Example 6, 8-[(2,5-Dimethyl-1-pyrrolidinyl)methyl)-3-(phenylsulfonyl)quinoline] | ≤ 10 |
| O=S(=O)(c1ccccc1)c1cnc2c(CN3CC(F)(F)C3)cccc2c1 [Example 34, 8-[(3,3-Difluoro-1-azetidinyl)methyl]-3-(phenylsulfonyl)quinoline hydrochloride] | < 1 |
| CC(c1cccc2cc(S(=O)(=O)c3ccccc3)cnc12)N1CCC(F)(F)C1 (stereo not shown) [Example 36, 8-[1-(3,3-Difluoro-1-pyrrolidinyl)ethyl]-3-(phenylsulfonyl)quinoline] | < 1 |
| CC(c1cccc2cc(S(=O)(=O)c3ccccc3)cnc12)N1CCCC(F)(F)C1 (stereo not shown) [Example 37, 8-[1-(3,3-Difluoro-1-piperidinyl)ethyl]-3-(phenylsulfonyl)quinoline] | < 1 |
| O=S(=O)(c1ccc(F)cc1)c1cnc2c(CN3CCCC(F)(F)C3)cccc2c1 [Example 38, 8-[(3,3-Difluoro-1-piperidinyl)methyl]-3-[(4-fluorophenyl)sulfonyl]quinoline hydrochloride] | < 1 |
| Cc1ccc(S(=O)(=O)c2cnc3c(CN4CCCC(F)(F)C4)cccc3c2)cc1 [Example 39, 8-[(3,3-Difluoro-1-piperidinyl)methyl]-3-[(4-methylphenyl)sulfonyl]quinoline hydrochloride] | < 1 |
| O=S(=O)(c1ccc(Cl)cc1)c1cnc2c(CN3CCCC(F)(F)C3)cccc2c1 [Example 40, 3-[(4-Chlorophenyl)sulfonyl]-8-[(3,3-difluoro-1-piperidinyl)methyl]quinolinehydrochloride] | < 1 |
| O=S(=O)(c1ccc(Br)cc1)c1cnc2c(CN3CCCC(F)(F)C3)cccc2c1 [Example 41, 3-[(4-Bromophenyl)sulfonyl]-8-[(3,3-difluoro-1-piperidinyl)methyl]quinolinehydrochloride] | < 1 |
| Cc1ccc(S(=O)(=O)c2cnc3c(CN4CCCC(F)(F)C4)cccc3c2)cc1Cl [Example 45, 3-[(3-Chloro-4-methylphenyl)sulfonyl]-8-[(3,3-difluoro-1-piperidinyl)methyl]quinolinehydrochloride] | < 1 |

Further lines, results first:

| EC50 [µM] | SMILES |
| --- | --- |
| ≤ 10 | O=S(=O)(c1ccccc1)c1cnc2c(CN3CCCC3)cccc2c1 [Example 1, 3-(Phenylsulfonyl)-8-(1-pyrrolidinylmethyl)quinoline hydrochloride] |
| > 31.6 | CN1CCN(Cc2cccc3cc(S(=O)(=O)c4ccccc4)cnc23)CC1 [Example 3, 8-[(4-Methyl-1-piperazinyl)methyl]-3-(phenylsulfonyl)quinoline] |
| < 1 | O=S(=O)(c1ccccc1)c1cnc2c(CN3CCC(F)(F)C3)cccc2c1 [Example 33, 8-[(3,3-Difluoro-1-pyrrolidinyl)methyl]-3-(phenylsulfonyl)quinoline hydrochloride] |
| < 1 | CC(c1cccc2cc(S(=O)(=O)c3ccccc3)cnc12)N1CC(F)(F)C1 (stereo not shown) [Example 35, 8-[1-(3,3-Difluoro-1-azetidinyl)ethyl]-3-(phenylsulfonyl)quinoline] |
| ≤ 10 | COc1ccc(S(=O)(=O)c2cnc3c(CN4CCCC(F)(F)C4)cccc3c2)cc1Cl [Example 42, 3-{[3-Chloro-4-(methyloxy)phenyl]sulfonyl}-8-[(3,3-difluoro-1-piperidinyl)methyl]quinolinehydrochloride] |
| < 1 | COc1ccc(S(=O)(=O)c2cnc3c(CN4CCCC(F)(F)C4)cccc3c2)cc1NC(C)=O [Example 43, N-[5-({8-[(3,3-Difluoro-1-piperidinyl)methyl]-3-quinolinyl}sulfonyl)-2-(methyloxy)phenyl]acetamidehydrochloride] |
| < 1 | COc1ccc(S(=O)(=O)c2cnc3c(CN4CCCC(F)(F)C4)cccc3c2)cc1OC [Example 44, 3-{[3,4-Bis(methyloxy)phenyl]sulfonyl}-8-[(3,3-difluoro-1-piperidinyl)methyl]quinolinehydrochloride] |
| < 1 | O=S(=O)(c1ccc2ccccc2c1)c1cnc2c(CN3CCCC(F)(F)C3)cccc2c1 [Example 46, 8-[(3,3-Difluoro-1-piperidinyl)methyl]-3-(2-naphthalenylsulfonyl)quinolinehydrochloride] |

What follows are compounds tested against T2, human cloned 5-HT6 receptors (Homo sapiens, UniProt P50406) (assay: Cyclase assay (cAMP production in membranes of HeLa 5HT6 cells, antagonism of 5-HT)). Settings: cyclase assay with 5-HT at 4xEC50, read-out: fpKi (functional pKi, antagonist potency) (converted).
T2 construct: expressed in transfected cells; host or cells: HeLa cells (membranes)
Assay type: biochemical
Procedure: 0.5 μl of test compound in 100% dimethylsulfoxide (DMSO) was added to a white, solid 384 well assay plate (for dose response measurements the top of the concentration range is 7.5 μM final). 10 μl of washed membranes of HeLa 5HT6 cells (for preparation see WO 98/27081) in basic buffer (50 mM HEPES pH 7.4 (KOH), 1 mM MgCl2, 100 mM NaCl, 1 μl/ml 3-isobutyl-1-methylxanthine (IBMX) (Sigma-Aldrich)) was added to all wells followed by 10 μl 2×ATP buffer (100 μl/ml ATP and 1 μl/ml 3-Isobutyl-1-methylxanthine (IBMX) (Sigma-Aldrich)) with 5-HT (at a concentration equivalent to a dose response of 4×EC50). The resultant mixture was then incubated at room temperature for 30-45 minutes to allow cAMP production.
cAMP production was then measured using the DiscoveRx™ HitHunter™ chemiluminescence cAMP assay kit (DiscoveRx Corporation, 42501 Albrae Street, Fremont, Calif. 94538; Product Code: 90-0004L) or any other suitable cAMP measurement assay.
IC50 values were estimated from arbitrary designated unit (ADU) measurements from a Perkin Elmer Viewlux instrument using a four parameter logistic curve fit within EXCEL (Bowen, W. P. and Jerman, J. C. (1995), Nonlinear regression using spreadsheets. Trends in Pharmacol. Sci., 16, 413-417). Functional Ki values were calculated using the method of Cheng, Y. C. and Prussof, W. H. (Biochemical Pharmacol (1973) 22 3099-3108). pIC50 and fpKi are the negative log 10 of the molar IC50 and functional Ki respectively.

T2 sequence (P50406 whole entry): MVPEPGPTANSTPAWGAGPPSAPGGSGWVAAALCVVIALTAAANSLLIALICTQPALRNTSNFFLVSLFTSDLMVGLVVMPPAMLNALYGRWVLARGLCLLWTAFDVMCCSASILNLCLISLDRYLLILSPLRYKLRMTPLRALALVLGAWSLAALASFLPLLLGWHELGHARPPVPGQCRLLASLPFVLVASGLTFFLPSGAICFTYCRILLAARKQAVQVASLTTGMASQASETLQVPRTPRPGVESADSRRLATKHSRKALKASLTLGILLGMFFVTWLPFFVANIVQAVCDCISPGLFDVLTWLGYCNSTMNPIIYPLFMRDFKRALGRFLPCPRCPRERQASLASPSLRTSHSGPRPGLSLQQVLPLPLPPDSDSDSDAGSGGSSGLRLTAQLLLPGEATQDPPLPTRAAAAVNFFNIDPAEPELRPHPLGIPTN

| SMILES | Ki [µM] |
| --- | --- |
| O=S(=O)(c1ccccc1)c1cnc2c(CN3CCC(F)(F)CC3)cccc2c1 [Example 5, 8-[(4,4-Difluoro-1-piperidinyl)methyl]-3-(phenylsulfonyl)quinoline] | < 0.1 |
| CC1CCC(C)N1Cc1cccc2cc(S(=O)(=O)c3ccccc3)cnc12 (stereo not shown) [Example 6, 8-[(2,5-Dimethyl-1-pyrrolidinyl)methyl)-3-(phenylsulfonyl)quinoline] | < 0.1 |
| O=S(=O)(c1ccccc1)c1cnc2c(CCN3CCCC3)cccc2c1 [Example 10, 3-(Phenylsulfonyl)-8-[2-(1-pyrrolidinyl)ethylquinoline hydrochloride] | < 0.1 |
| CC(c1cccc2cc(S(=O)(=O)c3ccccc3)cnc12)N1CCCC1 (stereo not shown) [Example 16, 3-(Phenylsulfonyl)-8-(1-pyrrolidin-1-ylethyl)quinoline hydrochloride] | < 0.1 |
| CCN(C)C(C)c1cccc2cc(S(=O)(=O)c3ccccc3)cnc12 (stereo not shown) [Example 21, N-Ethyl-N-methyl-1-[3-(phenylsulfonyl)quinolin-8-yl]ethanamine hydrochloride] | < 0.1 |
| CC(C)(c1cccc2cc(S(=O)(=O)c3ccccc3)cnc12)N1CCCC1 [Example 22, 8-(1-Methyl-1-pyrrolidin-1-ylethyl)-3-(phenylsulfonyl)quinoline hydrochloride] | ≤ 1 |

More lines, now with the values ahead:

| Ki [µM] | SMILES |
| --- | --- |
| < 0.1 | O=S(=O)(c1ccccc1)c1cnc2c(CN3CCCC3)cccc2c1 [Example 1, 3-(Phenylsulfonyl)-8-(1-pyrrolidinylmethyl)quinoline hydrochloride] |
| < 0.1 | CN1CCN(Cc2cccc3cc(S(=O)(=O)c4ccccc4)cnc23)CC1 [Example 3, 8-[(4-Methyl-1-piperazinyl)methyl]-3-(phenylsulfonyl)quinoline] |
| < 0.1 | O=S(=O)(c1ccccc1)c1cnc2c(CCN3CCCCC3)cccc2c1 [Example 11, 3-(Phenylsulfonyl)-8-[2-(1-piperidiny)ethyl]quinoline hydrochloride] |
| < 0.1 | O=S(=O)(c1ccccc1)c1cnc2c(CCCN3CCCC3)cccc2c1 [Example 12, 3-(Phenylsulfonyl)-8-[3-(1-pyrrolidinyl)propyl]quinoline hydrochloride] |
| < 0.1 | O=S(=O)(c1ccccc1)c1cnc2c(CCCN3CCCCC3)cccc2c1 [Example 13, 3-(Phenylsulfonyl)-8-[3-(1-piperidinyl)propyl]quinoline] |
| < 0.1 | O=S(=O)(c1ccccc1)c1cnc2c(CCCN3CCOCC3)cccc2c1 [Example 14] |
| < 0.1 | CN(C)CCCc1cccc2cc(S(=O)(=O)c3ccccc3)cnc12 [Example 15, N,N-Dimethyl-3-[3-(phenylsulfonyl)-8-quinolinyl]-1-propanamine] |
| < 0.1 | CC(c1cccc2cc(S(=O)(=O)c3ccccc3)cnc12)N1CCCCC1 (stereo not shown) [Example 17, 3-(phenylsulfonyl)-8-(1-piperidin-1-ylethyl)quinoline] |
| ≤ 1 | CC(c1cccc2cc(S(=O)(=O)c3ccccc3)cnc12)N1CCOCC1 (stereo not shown) [Example 18, 8-(1-morpholin-4-ylethyl)-3-(phenylsulfonyl)-quinoline] |
| < 0.1 | CC(c1cccc2cc(S(=O)(=O)c3ccccc3)cnc12)N(C)C (stereo not shown) [Example 19, N,N-dimethyl-1-[3-(phenylsulfonyl)quinolin-8-yl]ethanamine] |
